Measured values: the NIST ThermoML archive (doi:10.1021/je0600810)
± gives the expanded uncertainty stated by the source.

What was measured:
[1] = 101.33 kPa, Liquid; for viscosity: Capillary tube (Ostwald / Ubbelohde) method
[2] = φn = volume fraction of the nth substance listed; details: 101 kPa, Liquid

CO [methanol]
[1]
Details	mass density [kg/m3]	viscosity [mPa·s]
298.15 K	786.59 ± 0.61	0.5446 ± 0.0048
308.15 K	777.28 ± 0.62	0.4747 ± 0.0043
318.15 K	767.74 ± 0.63	0.4185 ± 0.0039

CO [methanol] + O
[2]
Details	mass density, 298.15 K [kg/m3]	mass density, 308.15 K [kg/m3]	mass density, 318.15 K [kg/m3]	viscosity, 298.15 K [mPa·s]	viscosity, 308.15 K [mPa·s]	viscosity, 318.15 K [mPa·s]
φ1 = 0.01	982.97 ± 0.34	979.73 ± 0.35	976.04 ± 0.36	1.084 ± 0.018	0.8665 ± 0.015	0.702 ± 0.012
φ1 = 0.2	969.63 ± 0.39	966.32 ± 0.4	961.62 ± 0.41	1.311 ± 0.021	1.022 ± 0.017	0.8075 ± 0.014
φ1 = 0.3	956.2 ± 0.44	951.6 ± 0.45	946.26 ± 0.46	1.471 ± 0.024	1.142 ± 0.019	0.8957 ± 0.015
